Read-outs that look alike come from different tables or passages of the source. Where no end group is shown, it is not given here.
Columns and labels:
HLA-A0201 = target: T1, HLA-A0201 (Homo sapiens, UniProt P04439, D140Y/D185E/D98H/E176V/E277Q/G131W/G231S/I119V/I121R/I166T/I218V/L300P/L318F/N151K/N90K/P208A/P217A/Q86G/Q94H/R138H/R169H/T345S); assay: cell-based; type: binding; conditions: for inhibition at 5 µM / inhibition at 15 µM / 5-μM inhibition (%) / 15-μM inhibition (%): 24 h; for inhibition at 5 µM: read-out: 5-μM inhibition (%); for inhibition at 15 µM: read-out: 15-μM inhibition (%)
T1 construct: expressed in transfected cells; host or cells: HMy2.CIR

HLA-A0203 = target: T2, HLA-A0203 (Homo sapiens, UniProt P04439, A173T/D140Y/D185E/D98H/E277Q/G131W/G231S/I119V/I121R/I166T/I218V/L180W/L300P/L318F/N151K/N90K/P208A/P217A/Q86G/Q94H/R138H/R169H/T345S); assay: cell-based; type: binding; conditions: for inhibition at 5 µM: read-out: 5-μM inhibition (%); for inhibition at 15 µM: read-out: 15-μM inhibition (%)
T2 construct: expressed in transfected cells; host or cells: HMy2.CIR

HLA-A1101 = target: T3, HLA-A1101 (Homo sapiens, UniProt P04439, A114D/D185E/E176A/F33Y/L180Q/S129P/T187R); assay: cell-based; type: binding; conditions: for 5-μM inhibition (%) / inhibition at 5 µM: peptide 5 μM vs FITC-labeled reference peptide 300 nM; for 5-μM inhibition (%) / 15-μM inhibition (%) / inhibition at 5 µM / inhibition at 15 µM: 24 h, 4°C, flow cytometry; for 15-μM inhibition (%) / inhibition at 15 µM: peptide 15 μM vs FITC-labeled reference peptide 300 nM; for inhibition at 5 µM: read-out: 5-μM inhibition (%); for inhibition at 15 µM: read-out: 15-μM inhibition (%)
T3 construct: expressed in transfected cells; host or cells: HMy2.CIR

HLA-A3303 = HLA-A3303 (Homo sapiens, UniProt P04439, A270S/D185E/E176V/E277Q/E87N/F33T/G231S/H175R/I121M/I218V/I322F/K168Q/L300P/L318F/M331R/P217A/Q86R/Q94H/R138Q/T323A/T345S/T97I/V358M); assay: Peptide competitive binding assay, HMy2.CIR cells expressing A3303; conditions: for inhibition at 5 µM: peptide 5 μM vs FITC-labeled reference peptide 300 nM; for inhibition at 5 µM / inhibition at 15 µM: 24 h, 4°C, flow cytometry; for inhibition at 15 µM: peptide 15 μM vs FITC-labeled reference peptide 300 nM; for IC50: read-out: Affinity
HLA-A2402 = HLA-A2402 (Homo sapiens, UniProt P04439, D101N/D140Y/D185E/E176V/E190D/F33S/G103R/G107R/I119L/I121M/I306V/K335N/L105A/L180Q/L300P/N151K/N90K/Q86E/Q94H/R106L/R138H/R89G/T104I/T345S/V100E/W191G/Y123F); assay: cell-based; type: binding; conditions: for inhibition at 5 µM / inhibition at 15 µM / 5-μM inhibition (%) / 15-μM inhibition (%): A2402, 24 h, 4°C, flow cytometry; for inhibition at 5 µM / 5-μM inhibition (%): peptide 5 μM vs FITC-labeled reference peptide 300 nM; for inhibition at 15 µM / 15-μM inhibition (%): peptide 15 μM vs FITC-labeled reference peptide 300 nM
[1] = A0201, peptide 5 μM vs FITC-labeled reference peptide 300 nM, 4°C, flow cytometry
[2] = A0201, peptide 15 μM vs FITC-labeled reference peptide 300 nM, 4°C, flow cytometry
[3] = A0203, peptide 5 μM vs FITC-labeled reference peptide 300 nM, 24 h, 4°C, flow cytometry
[4] = A0203, peptide 15 μM vs FITC-labeled reference peptide 300 nM, 24 h, 4°C, flow cytometry

Compound: CC[C@H](C)[C@H](NC(=O)[C@H](CO)NC(=O)[C@@H](NC(=O)[C@@H]1CCCN1C(=O)[C@H](CO)NC(=O)[C@H](Cc1ccc(O)cc1)NC(=O)[C@H](CCSC)NC(=O)[C@@H](N)CCCNC(=N)N)C(C)C)C(=O)N[C@@H](CC(C)C)C(=O)O [Peptide P9]
- inhibition at 5 µM (HLA-A0201): 0%
- inhibition at 15 µM (HLA-A0201): 4.54%
- IC50 (HLA-A0203): 5 to 15 µM
- inhibition at 5 µM (HLA-A0203; 24 h): 0%
- inhibition at 15 µM (HLA-A0203; 24 h): 50.1%

Compound: ALFYKLDIV [Peptide P2]
- IC50 (HLA-A0201): 5 to 15 µM
- inhibition at 5 µM (HLA-A0201; [1]): 23.2%
- inhibition at 15 µM (HLA-A0201; [2]): 70.5%
- IC50 (HLA-A0203): 5 to 15 µM
- inhibition at 5 µM (HLA-A0203; [3]): 26.1%
- inhibition at 15 µM (HLA-A0203; [4]): 61.9%

Compound: ALQDSGSEV [Peptide P18]
- 5-μM inhibition (%) (HLA-A0201; [1]): 15.88%
- 15-μM inhibition (%) (HLA-A0201; [2]): 41.90%

Compound: ALQTGTEEL [Peptide P8]
- 5-μM inhibition (%) (HLA-A0201; [1]): 0.00%
- 15-μM inhibition (%) (HLA-A0201; [2]): 14.68%
- 5-μM inhibition (%) (HLA-A0203; [3]): 0.00%
- 15-μM inhibition (%) (HLA-A0203; [4]): 5.56%

Compound: ALTDIVPLT [Peptide P12]
- IC50 (HLA-A0201): 5 to 15 µM
- inhibition at 5 µM (HLA-A0201; [1]): 28%
- inhibition at 15 µM (HLA-A0201; [2]): 72.2%

Compound: ASCDQCQLK [Peptide P38]
- 5-μM inhibition (%) (HLA-A1101; A1101): 12.62%
- 15-μM inhibition (%) (HLA-A1101; A1101): 33.56%

Compound: ATESIVIWGK [Peptide P36]
- IC50 (HLA-A1101): < 5 µM
- inhibition at 5 µM (HLA-A1101; A1101): 88.3%
- inhibition at 15 µM (HLA-A1101; A1101): 90.7%

Compound: CTPAGYAILK [Peptide P23]
- IC50 (HLA-A1101; A1101, class from inhibition at 5 and 15 μM of FITC-labeled reference peptide binding, read-out: Affinity): < 5 µM
- inhibition at 5 µM (HLA-A1101; A1101): 70.1%
- inhibition at 15 µM (HLA-A1101; A1101): 88.1%

Compound: DAWEKIRLR [Peptide P104]
- inhibition at 5 µM (HLA-A3303; A3303): 71.8%
- inhibition at 15 µM (HLA-A3303; A3303): 82.5%
- IC50 (HLA-A3303): < 5 µM

Compound: ELYPLTSLK [Peptide P29]
- IC50 (HLA-A1101): < 5 µM
- inhibition at 5 µM (HLA-A1101; A1101): 51.1%
- inhibition at 15 µM (HLA-A1101; A1101): 79.9%

Compound: FYCNTSGLF [Peptide P46]
- IC50 (HLA-A2402): < 5 µM
- inhibition at 5 µM (HLA-A2402): 95%
- inhibition at 15 µM (HLA-A2402): 99.5%

Compound: FYCNTTKLF [Peptide P49]
- IC50 (HLA-A2402): 5 to 15 µM
- inhibition at 5 µM (HLA-A2402): 49.2%
- inhibition at 15 µM (HLA-A2402): 60.5%

Compound: GMLMISSAV [Peptide P70]
- IC50 (HLA-A0203; A0203, class from inhibition at 5 and 15 μM of FITC-labeled reference peptide binding, read-out: Affinity): < 5 µM
- inhibition at 5 µM (HLA-A0203; [3]): 71.4%
- inhibition at 15 µM (HLA-A0203; [4]): 85.5%

Compound: GSNFTSAAVK [Peptide P37]
- IC50 (HLA-A1101): < 5 µM
- inhibition at 5 µM (HLA-A1101; A1101): 74%
- inhibition at 15 µM (HLA-A1101; A1101): 91%

Compound: GTYTPNGTK [Peptide P22]
- IC50 (HLA-A1101): 5 to 15 µM
- inhibition at 5 µM (HLA-A1101; A1101): 43.2%
- inhibition at 15 µM (HLA-A1101; A1101): 87.4%

Compound: HYMLKHLVW [Peptide P55]
- 5-μM inhibition (%) (HLA-A2402): 13.48%
- 15-μM inhibition (%) (HLA-A2402): 31.20%

Compound: IIFAVLSIV [Peptide P5]
- inhibition at 5 µM (HLA-A0201; [1]): 20.6%
- inhibition at 15 µM (HLA-A0201; [2]): 42.8%
- IC50 (HLA-A0203): 5 to 15 µM
- inhibition at 5 µM (HLA-A0203; [3]): 31%
- inhibition at 15 µM (HLA-A0203; [4]): 64.6%

Compound: ITNWLWYIK [Peptide P20]
- IC50 (HLA-A1101): < 5 µM
- inhibition at 5 µM (HLA-A1101; A1101): 69.8%
- inhibition at 15 µM (HLA-A1101; A1101): 71%

Compound: IVIWGKTPK [Peptide P43]
- IC50 (HLA-A1101): < 5 µM
- inhibition at 5 µM (HLA-A1101; A1101): 80.2%
- inhibition at 15 µM (HLA-A1101; A1101): 90.1%

Compound: IVKCFNCGK [Peptide P32]
- 5-μM inhibition (%) (HLA-A1101; A1101): 20.16%
- 15-μM inhibition (%) (HLA-A1101; A1101): 36.81%

Compound: IWGKTPKFRL [Peptide P62]
- 5-μM inhibition (%) (HLA-A2402): 21.17%
- 15-μM inhibition (%) (HLA-A2402): 37.66%

Compound: IYKRWIILGL [Peptide P56]
- 5-μM inhibition (%) (HLA-A2402): 20.61%
- 15-μM inhibition (%) (HLA-A2402): 25.51%

Compound: KTIIVHLNK [Peptide P19]
- 5-μM inhibition (%) (HLA-A0201; [1]): 0.00%
- 15-μM inhibition (%) (HLA-A0201; [2]): 4.54%

Compound: KYRLKHLVW [Peptide P54]
- IC50 (HLA-A2402): 5 to 15 µM
- inhibition at 5 µM (HLA-A2402): 35.8%
- inhibition at 15 µM (HLA-A2402): 79.5%

Compound: MAVFIHNFKR [Peptide P109]
- inhibition at 5 µM (HLA-A3303; A3303): 55.1%
- inhibition at 15 µM (HLA-A3303; A3303): 56.1%
- IC50 (HLA-A3303): < 5 µM

Compound: MYAPPISGR [Peptide P106]
- IC50 (HLA-A3303; A3303, class from inhibition at 5 and 15 μM of FITC-labeled reference peptide binding): < 5 µM
- inhibition at 5 µM (HLA-A3303; A3303): 72.8%
- inhibition at 15 µM (HLA-A3303; A3303): 81.5%

Compound: MYSPTSILDI [Peptide P52]
- IC50 (HLA-A2402): 5 to 15 µM
- inhibition at 5 µM (HLA-A2402): 21.6%
- inhibition at 15 µM (HLA-A2402): 79.4%

— publication PMC11850406, “Large-scale screening of HIV-1 T-cell epitopes restricted by 12 prevalent HLA-A allotypes in Northeast Asia and universal detection of HIV-1-specific CD8^+ T cells” (Frontiers in Microbiology, 2025)
